Data published in US11076594B2, “Pyrazolone compound or salt thereof, preparation method therefor, herbicide composition and use thereof” (QINGDAO KINGAGROOT CHEMICAL COMPOUNDS CO., LTD., priority 2015, dated 2021).

How the values were obtained:
Assay type in all cases: in vivo
Conditions in all cases: post-emergence spray at 4-5 leaf stage, 250 g/ha active ingredient with 450 kg/ha water, rated after 3 weeks in greenhouse
echinochloa = test: weed control effect in post-emergence stage (Table 1); set-up: key: Level 10: completely dead; Level 9: above 95% growth control rate; Level 8: above 90% growth control rate; Level 7: above 80% growth control rate; Level 6: above 70% growth control rate; Level 5: above 60% growth control rate; Level 4: above 50% growth control rate; Level 3: above 20% growth control rate; Level 2: 5%-20% growth control rate; Level 1: below 5% growth control rate
Summary of the method: (§1)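 Greenhouse pot test; foliar spray at 4-5 leaf stage; acetone + Tween 80 + water formulation; 3 wk post-treatment fresh-weight control rate.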

foxtail = test: as above; set-up: key: Level 10: completely dead; Level 9: above 95% growth control rate; Level 8: above 90% growth control rate; Level 7: above 80% growth control rate; Level 6: above 70% growth control rate; Level 5: above 60% growth control rate; Level 4: above 50% growth control rate; Level 3: above 20% growth control rate; Level 2: 5%-20% growth control rate; Level 1: below 5% growth control rate
Summary of the method: as §1

crab grass = test: as above; set-up: key: Level 10: completely dead; Level 9: above 95% growth control rate; Level 8: above 90% growth control rate; Level 7: above 80% growth control rate; Level 6: above 70% growth control rate; Level 5: above 60% growth control rate; Level 4: above 50% growth control rate; Level 3: above 20% growth control rate; Level 2: 5%-20% growth control rate; Level 1: below 5% growth control rate
Summary of the method: as §1

bidens bipinnata = test: as above; set-up: key: Level 10: completely dead; Level 9: above 95% growth control rate; Level 8: above 90% growth control rate; Level 7: above 80% growth control rate; Level 6: above 70% growth control rate; Level 5: above 60% growth control rate; Level 4: above 50% growth control rate; Level 3: above 20% growth control rate; Level 2: 5%-20% growth control rate; Level 1: below 5% growth control rate
Summary of the method: as §1

rorippa indica = test: as above; set-up: key: Level 10: completely dead; Level 9: above 95% growth control rate; Level 8: above 90% growth control rate; Level 7: above 80% growth control rate; Level 6: above 70% growth control rate; Level 5: above 60% growth control rate; Level 4: above 50% growth control rate; Level 3: above 20% growth control rate; Level 2: 5%-20% growth control rate; Level 1: below 5% growth control rate
Summary of the method: as §1

Indian mallow = test: as above; set-up: key: Level 10: completely dead; Level 9: above 95% growth control rate; Level 8: above 90% growth control rate; Level 7: above 80% growth control rate; Level 6: above 70% growth control rate; Level 5: above 60% growth control rate; Level 4: above 50% growth control rate; Level 3: above 20% growth control rate; Level 2: 5%-20% growth control rate; Level 1: below 5% growth control rate
Summary of the method: as §1

wheat = test: post-emergence stage experiment, crop (Table 1)
Summary of the method: as §1

corn = test: post-emergence stage experiment, crop (Table 1)
Summary of the method: as §1

rice = test: post-emergence stage experiment, crop (Table 1); set-up: key: Level 10: completely dead; Level 9: above 95% growth control rate; Level 8: above 90% growth control rate; Level 7: above 80% growth control rate; Level 6: above 70% growth control rate; Level 5: above 60% growth control rate; Level 4: above 50% growth control rate; Level 3: above 20% growth control rate; Level 2: 5%-20% growth control rate; Level 1: below 5% growth control rate
Summary of the method: as §1

| effect on crop, Wheat (level) (wheat) | SMILES | weed control effect, Echinochloa (level) (echinochloa) | weed control effect, Green foxtail (level) (foxtail) | weed control effect, Crab grass (level) (crab grass) | weed control effect, Bidens bipinnata (level) (bidens bipinnata) | weed control effect, Rorippa indica (level) (rorippa indica) | weed control effect, Indian mallow (level) (Indian mallow) | effect on crop, Corn (level) (corn) | effect on crop, Rice (level) (rice) |
| --- | --- | --- | --- | --- | --- | --- | --- | --- | --- |
| 2 (Level 2: 5%-20% growth control rate) | CCc1nn(C)c(O)c1C(=O)c1ccc(C(F)(F)F)c(-n2cccn2)c1Cl [Compound 130] | 10 | 10 | 3 (Level 3: above 20% growth control rate) | 3 (Level 3: above 20% growth control rate) | 10 | 0 | 4 (Level 4: above 50% growth control rate) | 7 (Level 7: above 80% growth control rate) |
| 2 (Level 2: 5%-20% growth control rate) | CCn1nc(C)c(C(=O)c2ccc(C(F)(F)F)c(-n3cc(C)cn3)c2Cl)c1OC(=O)c1cn(C)nc1C [Compound 139] | 10 | 10 | 8 (Level 8: above 90% growth control rate) | 5 (Level 5: above 60% growth control rate) | 10 | 3 (Level 3: above 20% growth control rate) | 4 (Level 4: above 50% growth control rate) | 9 (Level 9: above 95% growth control rate) |
| 2 (Level 2: 5%-20% growth control rate) | CCc1nn(C)c(O)c1C(=O)c1ccc(C(F)(F)F)c(N2CCCC2=O)c1Cl [Compound 100] | 10 | 10 | 3 (Level 3: above 20% growth control rate) | 9 (Level 9: above 95% growth control rate) | 10 | 9 (Level 9: above 95% growth control rate) | 2 (Level 2: 5%-20% growth control rate) | 10 |
| 0 | CCOC(=O)Oc1c(C(=O)c2ccc(C(F)(F)F)c(-n3cc(C)cn3)c2Cl)c(C)nn1C [Compound 085] | 9 (Level 9: above 95% growth control rate) | 10 | 8 (Level 8: above 90% growth control rate) | 10 | 2 (Level 2: 5%-20% growth control rate) | 10 | 0 | 6 (Level 6: above 70% growth control rate) |
| 0 | CCOC(=O)Oc1c(C(=O)c2ccc(C(F)(F)F)c(-n3cccn3)c2Cl)c(C)nn1C [Compound 069] | 6 (Level 6: above 70% growth control rate) | 10 | 3 (Level 3: above 20% growth control rate) | 10 | 0 | 10 | 0 | 5 (Level 5: above 60% growth control rate) |
| 0 | Cc1nn(C)c(OC(=O)c2cnn(C)c2)c1C(=O)c1ccc(C(F)(F)F)c(-n2cccn2)c1Cl [Compound 070] | 6 (Level 6: above 70% growth control rate) | 9 (Level 9: above 95% growth control rate) | 4 (Level 4: above 50% growth control rate) | 5 (Level 5: above 60% growth control rate) | 5 (Level 5: above 60% growth control rate) | 10 | 3 (Level 3: above 20% growth control rate) | 3 (Level 3: above 20% growth control rate) |
| 0 | CCOC(=O)Oc1c(C(=O)c2ccc(C(F)(F)F)c(-n3ccc(C)n3)c2Cl)c(C)nn1C [Compound 078] | 7 (Level 7: above 80% growth control rate) | 7 (Level 7: above 80% growth control rate) | 4 (Level 4: above 50% growth control rate) | 10 | 0 | 10 | 0 | 4 (Level 4: above 50% growth control rate) |
| 2 (Level 2: 5%-20% growth control rate) | CCOc1c(C(=O)Oc2c(C(=O)c3ccc(C(F)(F)F)c(N4CCCC4=O)c3Cl)cnn2C)cnn1C [Compound 015] | 5 (Level 5: above 60% growth control rate) | 10 | 9 (Level 9: above 95% growth control rate) | 8 (Level 8: above 90% growth control rate) | 9 (Level 9: above 95% growth control rate) | 8 (Level 8: above 90% growth control rate) | 9 (Level 9: above 95% growth control rate) | 2 (Level 2: 5%-20% growth control rate) |

| SMILES | effect on crop, Wheat (level) (wheat) | weed control effect, Echinochloa (level) (echinochloa) | weed control effect, Green foxtail (level) (foxtail) | weed control effect, Crab grass (level) (crab grass) | weed control effect, Bidens bipinnata (level) (bidens bipinnata) | weed control effect, Rorippa indica (level) (rorippa indica) | weed control effect, Indian mallow (level) (Indian mallow) | effect on crop, Corn (level) (corn) | effect on crop, Rice (level) (rice) |
| --- | --- | --- | --- | --- | --- | --- | --- | --- | --- |
| CCn1nc(C)c(C(=O)c2ccc(C(F)(F)F)c(N3CCCCCC3=O)c2Cl)c1O [Compound 118] | 1 (Level 1: below 5% growth control rate) | 9 (Level 9: above 95% growth control rate) | 10 | 1 (Level 1: below 5% growth control rate) | 1 (Level 1: below 5% growth control rate) | 5 (Level 5: above 60% growth control rate) | 0 | 2 (Level 2: 5%-20% growth control rate) | 1 (Level 1: below 5% growth control rate) |
| CCn1ncc(C(=O)c2ccc(C(F)(F)F)c(-n3cccn3)c2Cl)c1OC(=O)c1cn(C)nc1C [Compound 127] | 1 (Level 1: below 5% growth control rate) | 10 | 10 | 3 (Level 3: above 20% growth control rate) | 10 | 10 | 10 | 1 (Level 1: below 5% growth control rate) | 7 (Level 7: above 80% growth control rate) |
| Cn1ncc(C(=O)c2ccc(C(F)(F)F)c(N3CCCC3=O)c2Cl)c1O [Compound 014] | 3 (Level 3: above 20% growth control rate) | 5 (Level 5: above 60% growth control rate) | 10 | 10 | 8 (Level 8: above 90% growth control rate) | 10 | 7 (Level 7: above 80% growth control rate) | 8 (Level 8: above 90% growth control rate) | 3 (Level 3: above 20% growth control rate) |
| Cn1ncc(C(=O)c2ccc(C(F)(F)F)c(-n3cccn3)c2Cl)c1O [Compound 064] | 3 (Level 3: above 20% growth control rate) | 5 (Level 5: above 60% growth control rate) | 10 | 7 (Level 7: above 80% growth control rate) | 7 (Level 7: above 80% growth control rate) | 9 (Level 9: above 95% growth control rate) | 10 | 7 (Level 7: above 80% growth control rate) | 2 (Level 2: 5%-20% growth control rate) |
